Data published in patent US10448639B2, “Fungicidal pyrazoles” (FMC CORPORATION, priority 2009, dated 2019).

Experiments:
Plasmopara viticola = assay: Test A: grape downy mildew, curative spray on inoculated grape seedlings, visual disease rating; type: in vivo; settings: 100 = 100% disease control; for Test A rating (% disease control): curative spray, 0 = no control relative to controls
Source text: Upon removal, visual disease ratings were made. […] A dash (-) indicates no test results.

Septoria tritici = assay: Test G: wheat leaf blotch, preventive spray on wheat seedlings, visual disease rating; settings: wheat leaf blotch, 100 = 100% disease control; for Test G rating (% disease control): preventive spray, 0 = no control
Phytophthora infestans = type: in vivo; settings: tomato late blight, 100 = 100% disease control; for Test D rating (% disease control): preventive spray, 0 = no control
Botrytis cinerea = assay: Test B: tomato Botrytis, preventive spray on tomato seedlings, visual disease rating; settings: tomato Botrytis, 100 = 100% disease control; for Test B rating (% disease control): preventive spray, 0 = no control
[1] = system: Erysiphe graminis f sp. tritici; assay: Test J: wheat powdery mildew, preventive spray on wheat seedlings, visual disease rating; settings: wheat powdery mildew, 100 = 100% disease control; for Test J rating (% disease control): preventive spray, 0 = no control
Alternaria solani = assay: Test C: tomato early blight, preventive spray on tomato seedlings, visual disease rating; settings: tomato early blight, 100 = 100% disease control; for Test C rating (% disease control): preventive spray, 0 = no control
Septoria nodorum = assay: Test F: Septoria glume blotch, preventive spray on wheat seedlings, visual disease rating; settings: Septoria glume blotch on wheat, 100 = 100% disease control; for Test F rating (% disease control): preventive spray, 0 = no control
[2] = system: Puccinia recondita f. sp. tritici; assay: Test I: wheat leaf rust, preventive spray on wheat seedlings, visual disease rating; settings: wheat leaf rust, 100 = 100% disease control; for Test I rating (% disease control): preventive spray, 0 = no control
Source text: General protocol for preparing test suspensions for Tests A-J: the test compounds were first dissolved in acetone in an amount equal to 3% of the final volume and then suspended at the desired concentration (in ppm) in acetone and purified water (50/50 mix by volume) containing 250 ppm of the surfactant Trem® 014 (polyhydric alcohol esters). The resulting test suspensions were then used in Tests A-J. Spraying a 200 ppm test suspension to the point of run-off on the test plants was the equivalent of a rate of 500 g/ha. Unless otherwise indicated, the rating values indicate a 200 ppm test suspension was used. (An asterisk “*” next to the rating value indicates a 40 ppm test suspension was used.)
The test suspension was sprayed to the point of run-off on wheat seedlings. The following day the seedlings were inoculated with a spore suspension of Puccinia recondita f. sp. tritici (the causal agent of wheat leaf rust) and incubated in a saturated atmosphere at 20° C. for 24 h, and then moved to a growth chamber at 20° C. for 7 days, after which time visual disease ratings were made

Rhizoctonia solani = assay: Test E: turf brown patch, preventive spray on creeping bent grass (Agrostis sp.) seedlings, disease rating; type: in vivo; settings: 100 = 100% disease control; for Test E rating (% disease control): preventive spray, 0 = no control
Source text: A dash (-) indicates no test results.

[3] = 0 = no disease control relative to controls
[4] = sprayed the day before inoculation, 0 = no disease control relative to controls

Compound	Test A rating (% disease control) (Plasmopara viticola) [%]	Test G rating (% disease control) (Septoria tritici) [%]	Test D rating (% disease control) (Phytophthora infestans) [%]	Test B rating (% disease control) (Botrytis cinerea) [%]	Test J rating (% disease control) [1] [%]	Test C rating (% disease control) (Alternaria solani) [%]	Test F rating (% disease control) (Septoria nodorum) [%]	Test I rating (% disease control) [2] [%]	Test E rating (% disease control) (Rhizoctonia solani) [%]	Test A disease control rating (Plasmopara viticola; [3]) [%]	Test G disease control rating (Septoria tritici; [4]) [%]	Test D disease control rating (Phytophthora infestans; [3]) [%]	Test B disease control rating (Botrytis cinerea; [3]) [%]	Test J disease control rating [1, 4] [%]	Test C disease control rating (Alternaria solani; [3]) [%]	Test F disease control rating (Septoria nodorum; [3]) [%]	Test I disease control rating [2, 4] [%]	Test E disease control rating (Rhizoctonia solani; [3]) [%]
Cc1nn(C)c(Nc2cccc(F)c2)c1-c1ccc(F)cc1Cl [compound 8]	55	100	0	99	99	54	0	97	99	–	–	–	–	–	–	–	–	–
COc1cc(Nc2c(-c3c(F)cccc3F)c(C)nn2C)cc(OC)c1 [compound 37]	0	3	0	0	0	0	0	0	0	–	–	–	–	–	–	–	–	–
Cc1nn(C)c(N(CC#N)c2c(F)cc(F)cc2F)c1-c1ccc(F)cc1Cl [compound 326]	–	–	–	–	–	–	–	–	–	8	100	0	99	94	99	73	99	99
